Experimental data from patent US8008260B2, “Methods of protecting against apoptosis using lipopeptides” (Cleveland Clinic Foundation, priority 2005, dated 2011).
Peptide text beside a SMILES is read from it. * marks the point of attachment. Propyl(2R-PamO,3-PamO) = CCCCCCCCCCCCCCCC(=O)OC[C@H](C*)OC(=O)CCCCCCCCCCCCCCC

Columns and labels:
ICR mice = assay: Radioprotection against total body gamma irradiation (TBI), 30-day survival; type: in vivo
Description: CBLB601, a R-Pam2-lipopeptide with the peptide moiety consisting of C-SKKKK (SEQ ID NO: 8), was selected for more detailed characterization as a radioprotector based upon its ability to activate NF-κB and preliminary in vivo data on radioprotection in NIH-SWISS mice (see Example 2). The objectives of this study were to determine the optimal dose, route of administration, and time of administration of CBLB601 to serve as a protector. ICR female mice of 10-15 weeks of age were used, with 10-15 animals per group or condition.
The optimal intraperitoneal administration schedule of CBLB601 was determined by injecting the compound at different times prior to irradiation. […] Therefore, all of the optimization experiments were performed with 10 Gy of total body irradiation (TBI). A dose of 3 μg of BCLB601/mouse (1/10 NOAEL) was chosen as the starting dose. Thus, 3 μg of CBLB601 was injected i.p. into ICR mice at 0.5 h, 1 h, 6 h, and 24 h or 1 h, 24 h, 48 h, 72 h, 96 h prior to 10 Gy of TBI (as described in Example 1). […] Injection of CBLB601 24 hrs before irradiation clearly yielded the best radioprotection (90-100% 30-day survival). When the compound was administered 48 hrs before irradiation, the radioprotection was ˜30%. Administration of CBLB601 at 1 hr prior to irradiation produced inconsistent results ranging from 80% protection in one experiment (FIG. 5B) to almost no protection (20%) in another experiment (FIG. 5A).
To determine the optimal radioprotective dose of CBLB601, the timing of injection and level of irradiation were kept constant, while the dose of CBLB601 was varied. ICR mice were injected i.p. with 1, 3, 10, 20, or 30 μg of CBLB601/mouse or 0.1, 0.3, 1, 3, 10, or […] 24 hrs prior to irradiation (10 Gy of TBI), and their survival was monitored for 30 days. The best protective dose was 3 μg/mouse, which supported a survival of 100% (FIGS. 6 A and B). […] Thus, the optimal protective dose of CBLB601 was determined to be 3 μg/mouse.
To determine the level of radiation that was protected by CBLB601, radioprotectant-treated and control mice were exposed to increasing levels of TBI. Groups of ICR mice were injected i.p. with either 3 μg CBLB601/mouse or PBS, and then 24 h later they received 10, 11, 12, 13, 14, and 15 Gy doses of TBI. Survival was recorded over 30 days. […] All of the mice irradiated with 10-11 Gy of TBI died between days 12-14 post irradiation, which was typical for death due to hematopoietic failure. All of the mice that received 14-15 Gy of TBI died between days 7-9 post irradiation, which was typical for mortality due to radiation-induced intestinal damage. Mice that were irradiated with 12-13 Gy of TBI died at intermediate times, which was typical for a mixed etiology of radiation-induced mortality. […] To reach a statistically significant 10% difference between control and CBLB601-treated mice, experimental groups of at least 50 mice must be used. Although CBLB601 rescued 100% of mice from 10 Gy of TBI, its protection at 11 Gy of TBI was only 20%. […] This may be indicative of a combined toxicity of the drug and the irradiation.
CBLB601 was administered intramuscularly to determine the optimal route of administration of this compound (especially since this would be the preferred route of administration for humans). […] In another experiment, increasing doses of CBLB601 administered i.m. were tested against 10, 11, and 12 Gy doses of […] (FIG. 9). […] A summary of the dose-dependency of the radioprotection of […] administered i.p. or i.m. 24 h prior to 10 Gy of TBI is shown in FIG. 10.
The optimal schedule of intramuscular administration of CBLB601 was determined by varying the time between drug delivery and irradiation. ICR mice were injected i.m. with 3 μg of CBLB601/mouse 24 h, 6 h, 3 h, and 1 h prior to TBI and +1 h, +3 h after TBI (FIG. 12A), as well as 48 h, 36 h, 24 h, 12 h, and 6 h prior to TBI (FIG. 12B). […]

mice = assay: Mitigation of radiation injury, injection 1 hr after TBI; type: in vivo
Experimental: The ability of CBLB612 to serve as a mitigator of lower dose radiation injury was also examined. For this, 50 μg of CBLB612/mouse was injected intramuscularly 1 hr after exposure to 8.5, 9, or 10 Gy of TBI.

[1] = Solubility of the lipopeptides
TLR2/TLR6 heterodimer = target: T1, TLR2/TLR6 heterodimer (Homo sapiens, UniProt O60603+Q9Y2C9); assay: NF-κB-dependent reporter activity in 293 cells expressing the TLR2/TLR6 heterodimer; type: cell-based; design: NF-κB activation: scale not given here
T1 construct: expressed in transfected cells; host or cells: 293 cells
Experimental: NF-κB-dependent reporter activity was measured in 293 cells that expressed the TLR2/YLR6 heterodimer. […] None of the non-palmitoylated corresponding peptides activated the NF-κB reporter (FIG. 18B). The peptide component of CBLB617 has a (−4) charge, which should prevent it from interacting with negatively charged cell surface markers. […] Table 5 summarizes the in vitro activity and solubility of all the compounds.

C57B1/6J mice = assay: Survival after gamma irradiation with p53 inhibitor pretreatment; type: in vivo; conditions: 10 mg/kg i.p.
Experimental: To examine the role of p53 in radiation-induced death, mice were treated with the small molecule inhibitor of p53, pifithrin-alpha (PFTα) (Komarov et al., Science 285:1733-7, 1999) immediately prior to gamma irradiation. C57B1/6J mice (6-8 weeks old males were used here and below, if not indicated otherwise) were injected intraperitoneally with 10 mg/kg of PFTα and then irradiated using a Shepherd 4000 Ci ^137Cesium source at a dose rate of 4 Gy per minute.

T1 sequence (O60603 21-784): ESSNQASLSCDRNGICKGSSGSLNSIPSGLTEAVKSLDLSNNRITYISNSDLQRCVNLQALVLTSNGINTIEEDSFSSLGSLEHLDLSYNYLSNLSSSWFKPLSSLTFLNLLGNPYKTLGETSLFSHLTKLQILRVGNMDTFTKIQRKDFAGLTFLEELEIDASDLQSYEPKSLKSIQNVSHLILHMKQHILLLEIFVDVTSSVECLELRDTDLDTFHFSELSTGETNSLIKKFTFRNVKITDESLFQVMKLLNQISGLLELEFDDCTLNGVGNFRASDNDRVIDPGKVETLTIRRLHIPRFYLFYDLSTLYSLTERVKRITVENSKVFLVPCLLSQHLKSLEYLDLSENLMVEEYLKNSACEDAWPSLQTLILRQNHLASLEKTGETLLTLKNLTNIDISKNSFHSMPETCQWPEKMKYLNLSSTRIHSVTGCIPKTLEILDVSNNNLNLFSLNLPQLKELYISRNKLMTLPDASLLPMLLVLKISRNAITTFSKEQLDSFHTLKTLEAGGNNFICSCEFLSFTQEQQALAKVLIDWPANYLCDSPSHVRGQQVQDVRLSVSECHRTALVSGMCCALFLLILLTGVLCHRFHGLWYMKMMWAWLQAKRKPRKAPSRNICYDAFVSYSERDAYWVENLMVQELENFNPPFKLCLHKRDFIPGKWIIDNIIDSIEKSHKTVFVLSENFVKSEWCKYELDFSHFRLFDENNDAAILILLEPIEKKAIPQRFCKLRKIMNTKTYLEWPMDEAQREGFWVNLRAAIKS
T1 sequence (Q9Y2C9 32-796): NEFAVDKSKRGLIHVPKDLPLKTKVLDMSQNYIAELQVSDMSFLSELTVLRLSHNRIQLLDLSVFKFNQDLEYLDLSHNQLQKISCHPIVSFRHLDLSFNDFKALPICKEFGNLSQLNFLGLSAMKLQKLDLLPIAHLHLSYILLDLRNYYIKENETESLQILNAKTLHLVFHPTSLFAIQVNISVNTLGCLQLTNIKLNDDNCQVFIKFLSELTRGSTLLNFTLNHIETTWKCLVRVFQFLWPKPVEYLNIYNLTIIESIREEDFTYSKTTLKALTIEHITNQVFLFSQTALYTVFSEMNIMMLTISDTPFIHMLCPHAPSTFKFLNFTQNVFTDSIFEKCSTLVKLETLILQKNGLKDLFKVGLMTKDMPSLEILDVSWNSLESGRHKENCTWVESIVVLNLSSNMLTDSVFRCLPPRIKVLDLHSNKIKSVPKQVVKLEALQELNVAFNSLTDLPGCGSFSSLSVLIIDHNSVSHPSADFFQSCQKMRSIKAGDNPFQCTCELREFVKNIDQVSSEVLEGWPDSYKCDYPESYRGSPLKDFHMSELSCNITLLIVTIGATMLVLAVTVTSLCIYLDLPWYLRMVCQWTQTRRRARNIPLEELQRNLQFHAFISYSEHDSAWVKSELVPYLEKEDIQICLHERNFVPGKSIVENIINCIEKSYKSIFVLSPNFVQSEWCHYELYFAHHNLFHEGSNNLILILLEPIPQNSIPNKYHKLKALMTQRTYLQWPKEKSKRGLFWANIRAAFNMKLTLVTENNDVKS

| Structure (SMILES) | toxicity in combination with radiation (ICR mice; i.m. 24 hours before 10 Gy TBI) | rank of radioprotective potency (ICR mice; i.m. 24 hrs before 10 Gy TBI) | radioprotector quality compared with CBLB601 (ICR mice; mouse, in vivo) | therapeutic index (ICR mice; summary of Example 5) | survival rate versus PBS (mice; 50 μg/mouse i.m. 1 hr after 8.5, 9 or 10 Gy TBI) | mice surviving to 27 days (mice; 50 μg/mouse i.m. 1 hr after 8.5 Gy TBI) | mice surviving to 27 days (mice; 50 μg/mouse i.m. 1 hr after 9 Gy TBI) | Solubility [1] | activation of the NF-κB reporter (in words, compared with CBLB601) (TLR2/TLR6 heterodimer; 293 cells expressing TLR2/TLR6, various doses) | NF-κB activation (TLR2/TLR6 heterodimer; in vitro activity, 293 cells expressing TLR2/TLR6) | survival of irradiated mice (C57B1/6J mice; fractioned cumulative 12.5 Gy (5×2.5 Gy)) | survival of irradiated mice (C57B1/6J mice; single 9 Gy dose) | survival of irradiated mice (C57B1/6J mice; single 12.5 Gy) | survival of irradiated mice (C57B1/6J mice; single 25 Gy) |
| --- | --- | --- | --- | --- | --- | --- | --- | --- | --- | --- | --- | --- | --- | --- |
| CCCCCCCCCCCCCCCC(=O)OC[C@H](CSC[C@H](N)C(=O)N[C@H](C(=O)N[C@@H](CCC(N)=O)C(=O)NCC(=O)N[C@@H](CCC(=O)O)C(=O)N[C@@H](CCC(=O)O)C(=O)N[C@@H](CO)C(=O)N[C@@H](CC(N)=O)C(=O)N[C@@H](CC(=O)O)C(=O)N[C@@H](CCCCN)C(=O)O)C(C)C)OC(=O)CCCCCCCCCCCCCCC [CBLB612] (H-C(Propyl(2R-PamO,3-PamO))VQGEESNDK-OH) | no toxicity in combination with radiation | CBLB612>CBLB614>CBLB615 | significantly better radioprotectors than CBLB601 | ~20 | increased the survival rate at every dose of radiation | 90% | 70% | Excellent | better activators than CBLB601 | 200 | – | – | – | – |
| Cc1ccc(C(=O)Cn2c3c(sc2=N)CCCC3)cc1 [PFTα, pifithrin-alpha] | – | – | – | – | – | – | – | – | – | – | protected mice | protected mice | no effect on the survival | no effect on the survival |
